According to US7897788B2, “Indol-1-yl-acetic acid derivatives” (Actelion Pharmaceutical Ltd., priority 2004, dated 2011):

Key:
hCRTH2 receptor [1] = target: T1, hCRTH2 receptor (Homo sapiens, UniProt Q9Y5Y4); assay: Intracellular calcium mobilization assay (FLIPR), Example B-2; type: cell-based; details: HEK-293 cells expressing hCRTH2; 10 nM prostaglandin D2 as agonist; read-out: CRTH2 FLIPR IC50 (nM) (method B2 above)
T1 construct: expressed in transfected cells
T1 sequence (Q9Y5Y4 1-395): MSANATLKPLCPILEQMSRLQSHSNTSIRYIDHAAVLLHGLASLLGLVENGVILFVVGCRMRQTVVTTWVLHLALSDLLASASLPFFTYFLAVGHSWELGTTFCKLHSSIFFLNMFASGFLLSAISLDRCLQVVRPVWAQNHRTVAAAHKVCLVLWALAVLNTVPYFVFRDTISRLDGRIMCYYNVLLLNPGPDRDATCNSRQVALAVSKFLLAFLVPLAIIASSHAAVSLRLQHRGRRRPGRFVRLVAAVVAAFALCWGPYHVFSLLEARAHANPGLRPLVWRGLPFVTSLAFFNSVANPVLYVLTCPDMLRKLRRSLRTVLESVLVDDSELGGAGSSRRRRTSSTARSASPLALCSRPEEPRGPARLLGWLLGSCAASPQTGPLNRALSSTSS
Method: A functional assay with cells expressing the human CRTH2 receptor may be used to detect changes in the levels of intracellular calcium concentration following compound treatment. After addition of the compound the cells are challenged with PGD2. In a Fluorescent Imaging Plate Reader (FLIPR™, Molecular Devices, Sunnyvale, Calif.) fluorescence emission is recorded during both additions, emission peak values above base level after PGD2 addition were exported, normalized to low controls (no PGD2) and high controls (no active compound). The relative values of the remaining activity were used to determine IC50 values by curve fitting the data to a single site to a four-parameter logistic sigmoid dose response curve of the equation (A+((B−A)/(1+((C/x)^D)))).
The ability of the compounds to antagonize PGD2 induced change of intracellular calcium levels via CRTH2 activation may be measured by methods known of one skilled in the art or by the method described below in Example B-2.
Cells (HEK-293), stably expressing the hCRTH2 receptor under the control of the cytomegalovirus promotor from a single insertion of the expression vector pcDNA5 (Invitrogen), are grown to confluency in DMEM (low glucose, Gibco) medium supplemented with 10% fetal calf serum (both Bioconcept, Switzerland) under standard mammalian cell culture conditions (37° C. in a humidified atmosphere of 5% CO2). Cells are detached from culture dishes using a dissociation buffer (0.02% EDTA in PBS, Gibco) for 1 min, and collected by centrifugation at 200 g at rt for 5 min in assay buffer (equal parts of Hank's BSS (HBSS, Bioconcept) and DMEM (low glucose, without phenol red, Gibco)). After incubation for 45 min (37° C. and 5% CO2) in the presence of 1 μM Fluo-4 and 0.04% Pluronic F-127 (both Molecular Probes), 20 mM HEPES (Gibco) in assay buffer, the cells are washed with and resuspended in assay buffer, then seeded onto 384-well FLIPR assay plates (Greiner) at 50,000 cells in 66 μl per well), and sedimented by centrifugation.
Stock solutions of test compounds are made up at a concentration of 10 mM in DMSO, and serially diluted in assay buffer to concentrations required for inhibition dose response curves. Prostaglandin D2 (Biomol, Plymouth Meeting, Pa.) is used as an agonist.
A FLIPR384 instrument (Molecular Devices) is operated according to the manufacturer's standard instructions, adding 4 μl of test compound dissolved at 10 mM in DMSO and diluted prior to the experiment in assay buffer to obtain the desired final concentration. 10 μl of 80 nM prostaglandin D2 (Biomol, Plymouth Meeting, Pa.) in assay buffer, supplemented with 0.8% bovine serum albumin (fatty acid content<0.02%, Sigma), is then added to obtain a final concentration of 10 nM and 0.1%, respectively. Changes in fluorescence are monitored before and after the addition of test compounds at λex=488 nm and λem=540 nm. Emission peak values above base level after prostaglandin D2 addition are exported after base line subtraction. Values are normalized to high-level control (no test compound added) after subtraction of base line value (no prostaglandin D2 added). The program XLlfit 3.0 (IDBS) is used to fit the data to a single site dose response curve of the equation (A+((B−A)/(1+((C/x)^D)))) and to calculate the IC50 values.

hCRTH2 receptor [2] = target: T1, hCRTH2 receptor; assay: CRTH2 membranes radioligand binding assay ({3H}-PGD2), Example B-1; details: {3H}-PGD2 radioligand binding, read-out: CRTH2 binding IC50 (nM) (method B1 above)
Method: The ability of the compounds of formula I, IC1, IC2 or IP to bind to the CRTH2 receptor may be measured by methods similar to those described in Sawyer N. et al., Br. J. Pharmacol. (2002), 137, 1163-1172 and by the method described below in Example B-1.
Preparation of the membranes and radioligand binding assays are performed according to known procedures, e.g. Sawyer N. et al. (Br. J. Pharmacol., 2002, 137, 1163-1172). A clonal HEK 293 cell line, expressing high level of recombinant hCRTH2 receptor, is selected for the preparation of membranes. Cells are detached from culture plates in 5 ml buffer A per plate (5 mM Tris, 1 mM MgCl2x6H2O, 0.1 mM PMSF, 0.1 mM phenanthroline) using a police rubber and transferred into centrifugation tubes and frozen at −80° C. After thawing, the cells are centrifuged at 500 g for 5 min and then resuspended in buffer A. Cells are then fragmented by homogenization with a Polytron homogenizer for 30 s. The membrane fragments are centrifuged at 3000 g for 40 min and resuspended in membranes in buffer B (50 mM Tris, 25 mM MgCl2, 250 mM saccharose, pH 7.4) and aliquots are stored frozen.
Binding assay is performed in a total volume of 250 μl. In each well, 75 μl buffer C (50 mM Tris, 100 mM NaCl, 1 mM EDTA, 0.1% BSA (protease free), 0.01% NaN3, pH 7.4) was mixed with 50 μl {^3H}-PGD2 (at 2.5 nM (220.000 dpm per well) from Amersham, TRK734), 100 μl CRTH2 membranes to give 80 μg per well and 25 μl of test compound in buffer C containing 1% DMSO. For unspecific binding, PGD2 is added to the reaction mixture at 1 μM final concentration. This binding assay mix is incubated at rt for 90 min and then filtered through a GF/C filter plate. The filter is washed three times with ice cold binding buffer. Then, 40 μl per well Microscint-40 (Packard) are added and the bound radioactivity is quantified by means of Topcount (Packard).

SMILES	IC50 (hCRTH2 receptor [1])	IC50 (hCRTH2 receptor [2])
N#C/C(=C\c1cn(CC(=O)O)c2ccccc12)C(=O)N(Cc1ccccc1)c1ccccc1 [Example 12, {3-[(E)-2-(benzyl-phenyl-carbamoyl)-2-cyano-vinyl]-indol-1-yl}-acetic acid]	90 nM	29 nM
N#C/C(=C\c1cn(CC(=O)O)c2ccccc12)C(=O)Nc1ccccc1Cc1ccccc1 [Example 29, {3-[(E)-2-(2-benzyl-phenylcarbamoyl)-2-cyano-vinyl]-indol-1-yl}-acetic acid]	151 nM	42 nM
COc1ccc(N(C)C(=O)/C(C#N)=C/c2cn(CC(=O)O)c3ccccc23)cc1 [Example 45, (3-{(E)-2-cyano-2-[(4-methoxy-phenyl)-methyl-carbamoyl]-vinyl}-indol-1-yl)-acetic acid]	48 nM	7 nM
CN(C(=O)/C(C#N)=C/c1cn(CC(=O)O)c2ccccc12)c1ccccc1 [Example 46, {3-[(E)-2-cyano-2-(methyl-phenyl-carbamoyl)-vinyl]-indol-1-yl}-acetic acid]	61 nM	11 nM
N#C/C(=C\c1cn(CC(=O)O)c2ccccc12)C(=O)N1CCCc2ccccc21 [Example 47, {3-[(E)-2-cyano-3-(3,4-dihydro-2H-quinolin-1-yl)-3-oxo-propenyl]-indol-1-yl}-acetic acid]	54 nM	9 nM
N#C/C(=C\c1cn(CC(=O)O)c2ccccc12)C(=O)Nc1ccccc1Oc1ccc(Cl)cc1Cl [Example 49, (3-{(E)-2-cyano-2-[2-(2,4-dichloro-phenoxy)-phenylcarbamoyl]-vinyl}-indol-1-yl)-acetic acid]	146 nM	35 nM
N#C/C(=C\c1cn(CC(=O)O)c2ccccc12)C(=O)Nc1cccc(C(=O)c2ccccc2)c1 [Example 54, {3-[(E)-2-(3-benzoyl-phenylcarbamoyl)-2-cyano-vinyl]-indol-1-yl}-acetic acid]	98 nM	18 nM
COc1ccc(Cl)cc1NC(=O)/C(C#N)=C/c1cn(CC(=O)O)c2ccccc12 [Example 64, {3-[(E)-2-(5-chloro-2-methoxy-phenylcarbamoyl)-2-cyano-vinyl]-indol-1-yl}-acetic acid]	61 nM	40 nM
Cc1ccc(NC(=O)/C(C#N)=C/c2cn(CC(=O)O)c3ccccc23)cc1Br [Example 70, {3-[(E)-2-(3-bromo-4-methyl-phenylcarbamoyl)-2-cyano-vinyl]-indol-1-yl}-acetic acid]	58 nM	76 nM
N#C/C(=C\c1cn(CC(=O)O)c2ccccc12)C(=O)N1c2ccccc2C=Cc2ccccc21 [Example 87, sodium [3-((E)-2-cyano-3-dibenzo[b,f]azepin-5-yl-3-oxo-propenyl)-indol-1-yl]-acetate]	57 nM	12 nM
N#C/C(=C\c1cn(CC(=O)O)c2ccccc12)C(=O)N1Cc2ccccc2Cc2ccccc21 [Example 89, {3-[(E)-2-cyano-3-(6,11-dihydro-dibenzo[b,e]azepin-5-yl)-3-oxo-propenyl]-indol-1-yl}-acetic acid]	114 nM	6 nM
CC(=O)c1ccc(N(C)C(=O)/C(C#N)=C/c2cn(CC(=O)O)c3ccccc23)cc1 [Example 94, (3-{(E)-2-[(4-acetyl-phenyl)-methyl-carbamoyl]-2-cyano-vinyl}-indol-1-yl)-acetic acid]	181 nM	10 nM
N#C/C(=C\c1cn(CC(=O)O)c2ccccc12)C(=O)N(CC(=O)O)c1ccccc1 [Example 99, {3-[(E)-2-(carboxymethyl-phenyl-carbamoyl)-2-cyano-vinyl]-indol-1-yl}-acetic acid]	159 nM	16 nM
CN(C(=O)/C(C#N)=C/c1cn(CC(=O)O)c2ccccc12)c1cccc(Cl)c1 [Example 101, (3-{(E)-2-[(3-chloro-phenyl)-methyl-carbamoyl]-2-cyano-vinyl}-indol-1-yl)-acetic acid]	182 nM	15 nM
N#C/C(=C\c1cn(CC(=O)O)c2ccccc12)C(=O)N1c2ccccc2Sc2ccc(Cl)cc21 [Example 113, {3-[(E)-3-(2-chloro-phenothiazin-10-yl)-2-cyano-3-oxo-propenyl]-indol-1-yl}-acetic acid]	66 nM	9 nM
CN(C(=O)/C(C#N)=C/c1cn(CC(=O)O)c2ccc(F)cc12)c1ccccc1C(F)(F)F [Example 141, (3-{(E)-2-cyano-2-[methyl-(2-trifluoromethyl-phenyl)-carbamoyl]-vinyl}-5-fluoro-indol-1-yl)-acetic acid]	47 nM	17 nM
Cc1ccc2c(/C=C(\C#N)C(=O)N3Cc4ccccc4Cc4ccccc43)cn(CC(=O)O)c2c1 [Example 149, {3-[(E)-2-cyano-3-(6,11-dihydro-dibenzo[b,e]azepin-5-yl)-3-oxo-propenyl]-6-methyl-indol-1-yl}-acetic acid]	253 nM	49 nM
